Consider four compounds from US6369079B1 (Sepracor, Inc., priority 1998, dated 2002).

Molecules are shown by their SMILES.

The target of data set [1] is T1, cloned human serotonin 5-HT1A receptor (Homo sapiens, UniProt P08908).
T1 construct: host or cells: NIH 3T3 cells
T1 sequence (P08908 1-422): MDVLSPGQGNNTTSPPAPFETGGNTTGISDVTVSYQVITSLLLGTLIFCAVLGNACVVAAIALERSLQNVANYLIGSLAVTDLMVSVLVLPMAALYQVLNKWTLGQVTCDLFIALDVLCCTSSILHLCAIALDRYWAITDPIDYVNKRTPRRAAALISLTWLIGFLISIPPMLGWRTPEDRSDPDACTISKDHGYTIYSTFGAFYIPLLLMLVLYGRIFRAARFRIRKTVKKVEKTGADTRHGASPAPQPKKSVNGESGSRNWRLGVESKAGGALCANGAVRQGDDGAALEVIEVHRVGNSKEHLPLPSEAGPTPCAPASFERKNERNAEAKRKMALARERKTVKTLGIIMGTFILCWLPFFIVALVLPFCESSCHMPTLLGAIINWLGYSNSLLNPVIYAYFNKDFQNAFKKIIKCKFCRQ
Description: R-SAT 5-HT1A receptor activity (agonist/antagonist). Format: cell-based. To be noted: antagonist activity against 2 μM 5-HT, NIH 3T3 cells, read-out: Calculated IC50 at 5-HT1A receptor. On the procedure: The assay involves co-expression of a marker enzyme, β-galactosidase, with the serotonin receptor of interest. Ligands stimulate proliferation of cells that express the receptor and, therefore, the marker. Ligand-induced effects can be determined by assay of the marker.
NIH 3T3 cells are incubated, plated, and then transfected using human 5-HT1A serotonin receptors, pSV-β-galactosidase, and salmon sperm DNA. The medium is changed one day later, and after 2 days, aliquots of the trypsinized cells are placed in wells of a 96 well plate. After five days in culture in the presence of the ligands, the levels of β-galactosidase are measured. The cells are then rinsed and incubated with the substrate, […] β-D-galactopyranoside.
Data from antagonist inhibition of the compounds are fit to the equation:
Response Max Response +(Min Response)/1+(Ligand Conc/[…])

For data set [2], the target named is T2, 5-HT3 receptor subtypes derived from N1E-115 cells (Mus musculus, UniProt P23979).
T2 construct: host or cells: N1E-115 cells
T2 sequence (P23979 24-489): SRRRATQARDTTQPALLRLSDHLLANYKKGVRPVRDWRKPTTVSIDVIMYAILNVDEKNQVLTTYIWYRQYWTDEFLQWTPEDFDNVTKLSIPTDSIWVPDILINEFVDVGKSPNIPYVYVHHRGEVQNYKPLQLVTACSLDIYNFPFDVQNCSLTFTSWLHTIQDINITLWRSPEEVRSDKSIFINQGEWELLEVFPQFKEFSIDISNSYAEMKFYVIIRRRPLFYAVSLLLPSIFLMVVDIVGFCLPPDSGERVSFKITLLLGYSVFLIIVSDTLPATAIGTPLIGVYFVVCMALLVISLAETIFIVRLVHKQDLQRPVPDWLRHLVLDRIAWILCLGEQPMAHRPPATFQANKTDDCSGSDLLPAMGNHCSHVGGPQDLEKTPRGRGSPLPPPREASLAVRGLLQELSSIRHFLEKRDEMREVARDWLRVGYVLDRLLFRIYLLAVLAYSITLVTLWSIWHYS
Description: 5-HT3 receptor radioligand binding (Cerep). To be noted: IC50 for binding to 5-HT3 sites, inhibition of specific radioligand binding. The method, then:
Following incubation with the appropriate ligands, the preparations are rapidly filtered under vacuum through GF/B glass fiber filters and washed with ice-cold buffer using a Brandel or Packard cell harvester.
(§1) Specific radioligand binding to the receptor is defined as the difference between total binding and nonspecific binding determined in the presence of an excess of unlabeled ligand. Results are expressed as a percent inhibition of specific binding obtained in the presence of the compounds.

For data set [3], the target named is T3, 5-HT4 receptor subtypes derived from guinea-pig striata (Cavia porcellus, UniProt O70528).
T3 construct: tissue Cerep, Celle l'Evescault, France; host or cells: guinea-pig striata
In words: 5-HT4 receptor radioligand binding (Cerep). To be noted: IC50 for binding to 5-HT4 sites, inhibition of specific radioligand binding. On the procedure: Following incubation with the appropriate ligands, the preparations are raidly filtered under vacuum through GF/B glass fiber filters and washed with ice-cold buffer using a Brandel or Packard cell harvester.
as §1

For data set [4] the following is noted: cited from earlier work.
The conditions of data set [5]: co-administration with ketoconazole; cited from earlier work.

T3 sequence (O70528 whole entry): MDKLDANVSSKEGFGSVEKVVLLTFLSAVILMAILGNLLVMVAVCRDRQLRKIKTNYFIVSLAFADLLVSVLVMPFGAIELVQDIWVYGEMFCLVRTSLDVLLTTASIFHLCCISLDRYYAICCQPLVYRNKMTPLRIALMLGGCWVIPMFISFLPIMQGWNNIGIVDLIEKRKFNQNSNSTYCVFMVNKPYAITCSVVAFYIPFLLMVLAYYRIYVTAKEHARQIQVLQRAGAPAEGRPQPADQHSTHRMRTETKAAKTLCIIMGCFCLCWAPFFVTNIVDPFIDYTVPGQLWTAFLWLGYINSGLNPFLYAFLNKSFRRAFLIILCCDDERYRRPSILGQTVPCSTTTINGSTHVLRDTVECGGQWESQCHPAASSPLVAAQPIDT

One may read the IC50 as the concentration that gives 50% inhibition. On to `COc1cc(N)c(Cl)cc1C(=O)NC1CCNCC1OC` (single isomer, unassigned; (+)) [(+) Norcisapride, 4-amino-5-chloro-N-(3-methoxy-4-piperidinyl)-2-methoxybenzamide], for which the values for the IC50 in data set [1], in data set [2] and in data set [3] were 5.4 nM, 4.5 nM and 331 nM, respectively.

As to `COc1cc(N)c(Cl)cc1C(=O)NC1CCNCC1OC` (racemic) [(±) Norcisapride, 4-amino-5-chloro-N-(3-methoxy-4-piperidinyl)-2-methoxybenzamide], the results for the half-inhibitory concentration (IC50) in data set [1], in data set [2] and in data set [3] were 7480 nM, 8.2 nM and 686 nM, respectively.

With `COc1cc(N)c(Cl)cc1C(=O)NC1CCNCC1OC` (single isomer, unassigned; (-)) [(−) Norcisapride, 4-amino-5-chloro-N-(3-methoxy-4-piperidinyl)-2-methoxybenzamide], the 50% inhibitory concentration (IC50) in data set [1] is 1300 nM; in data set [2] it was 30.4 nM; in data set [3], 1350 nM.

For the compound `COc1cc(N)c(Cl)cc1C(=O)NC1CCN(CCCOc2ccc(F)cc2)CC1OC` (racemic) [(±) Cisapride, cis-4-amino-5-chloro-N-[1-[3-(4-fluorophenoxy)propyl]-3-methoxy-4-piperidinyl]-2-methoxybenamide], the “Absorption after oral administration” value in data set [4] (humans) is “almost completely absorbed”. Besides, in data set [4] (humans, mainly oxidative N-dealkylation or aromatic hydroxylation), the “Fraction of dose metabolized” value is recorded as “More than 90%”. Further, the Bioavailability in data set [4] (oral administration to humans, rapid first-pass metabolism in the liver) is 40-50%. In addition, the “Increase of steady-state plasma levels” value in data set [5] is listed as 8 fold.
